These results are taken from ChEMBL document CHEMBL4825757, “Optimization of 4,6-Disubstituted Pyrido[3,2-d]pyrimidines as Dual MNK/PIM Inhibitors to Inhibit Leukemia Cell Growth” (J Med Chem, 2021).

Assay [1] addresses MAP kinase-interacting serine/threonine-protein kinase 1 (Homo sapiens, UniProt Q9BUB5). The assay can be described thus: Inhibition of MKN1 (unknown origin) at 1 uM in presence of ATP by HTRF assay.
For assay [2], the system named is MOLM-13. The assay can be described thus: Antiproliferative activity against human MOLM13 cells assessed as reduction of cell viability incubated for 72 hrs by trypan blue staining based cell counting analysis. It is filed as functional.
Assay [3] has as its system HL-60. Nature of the assay: Antiproliferative activity against human HL-60 cells assessed as reduction of cell viability incubated for 72 hrs by trypan blue staining based cell counting analysis. It is filed as functional.
The test system of assay [4] is K562. Nature of the assay: Antiproliferative activity against human K562 cells assessed as reduction of cell viability incubated for 72 hrs by trypan blue staining based cell counting analysis. It counts as functional.
In assay [5] the target is T1, Serine/threonine-protein kinase PIM (Homo sapiens) (UniProt P11309+Q9P1W9+Q86V86). The assay can be described thus: Inhibition of PIM in human MOLM-13 cells assessed as reduction in phosphorylated 4EBP1 at 20 to 40 uM incubated for 12 hrs by western blot analysis. It counts as cell-based. The following applies: dose 20-40 µM.
The target in assay [6] is T1, Serine/threonine-protein kinase PIM (Homo sapiens). Nature of the assay: Inhibition of PIM in human MOLM-13 cells assessed as reduction of BAD phosphorylation at 20 to 40 uM incubated for 12 hrs by western blot analysis. It is filed as cell-based. The following applies: dose 20-40 µM.
The test system of assay [7] is MOLM-13. The assay can be described thus: Induction of cell cycle arrest in human MOLM-13 cells assessed as G1 phase at 20 uM incubated for 12 hr by propidium iodide based flow cytometry analysis (Rvb= 51.29%). It is filed as functional.
For assay [8], the system named is MOLM-13. The assay can be described thus: Downregulation of c-myc levels in human MOLM-13 cells at 20 to 40 uM incubated for 12 hrs by western blot analysis. It counts as functional, cell-based. Particulars: dose 20-40 µM.
Assay [9] relates to MOLM-13. The assay can be described thus: Downregulation of mcl-1 levels in human MOLM-13 cells at 20 to 40 uM incubated for 12 hrs by western blot analysis. It counts as functional, cell-based. Particulars: dose 20-40 µM.
Assay [10] concerns MOLM-13. The assay can be described thus: Downregulation of cyclin-D1 levels in human MOLM-13 cells at 20 to 40 uM incubated for 12 hrs by western blot analysis. It is filed as functional, cell-based. Particulars: dose 20-40 µM.
Assay [11] relates to MOLM-13. The assay can be described thus: Induction of cell cycle arrest in human MOLM-13 cells assessed as sub-G1 phase at 20 uM incubated for 12 hr by propidium iodide based flow cytometry analysis (Rvb= 4.78%). It counts as functional.
Assay [12] relates to MOLM-13. The assay can be described thus: Induction of cell cycle arrest in human MOLM-13 cells assessed as sub-G1 phase at 40 uM incubated for 12 hr by propidium iodide based flow cytometry analysis (Rvb= 4.78%). It counts as functional.
Assay [13] concerns MOLM-13. The assay can be described thus: Induction of cell cycle arrest in human MOLM-13 cells assessed as G1 phase at 40 uM incubated for 12 hr by propidium iodide based flow cytometry analysis (Rvb= 51.29%). It is filed as functional.
The test system of assay [14] is MOLM-13. Nature of the assay: Induction of apoptosis in human MOLM-13 cells assessed as necrotic cells at 20 uM incubated for 12 hrs by annexin-V and propidium iodide staining based flow cytometry analysis (reference value: 0.06%). It is filed as functional.
In assay [15] the test system is MOLM-13. The assay can be described thus: Induction of apoptosis in human MOLM-13 cells assessed as late apoptotic cells at 20 uM incubated for 12 hrs by annexin-V and propidium iodide staining based flow cytometry analysis (reference value: 3.03%). It counts as functional.
The test system of assay [16] is MOLM-13. Nature of the assay: Induction of apoptosis in human MOLM-13 cells assessed as live cells at 20 uM incubated for 12 hrs by annexin-V and propidium iodide staining based flow cytometry analysis (reference value: 91.49%). It is filed as functional.
For assay [17], the system named is MOLM-13. Nature of the assay: Induction of apoptosis in human MOLM-13 cells assessed as early apoptotic cells at 20 uM incubated for 12 hrs by annexin-V and propidium iodide staining based flow cytometry analysis (reference value: 5.40%). It counts as functional.
Assay [18] has as its system MOLM-13. Nature of the assay: Induction of apoptosis in human MOLM-13 cells assessed as necrotic cells at 40 uM incubated for 12 hrs by annexin-V and propidium iodide staining based flow cytometry analysis (reference value: 0.06%). It is filed as functional.
The subject of assay [19] is MOLM-13. Nature of the assay: Induction of apoptosis in human MOLM-13 cells assessed as late apoptotic cells at 40 uM incubated for 12 hrs by annexin-V and propidium iodide staining based flow cytometry analysis (reference value: 3.03%). It is filed as functional.
In assay [20] the test system is MOLM-13. The assay can be described thus: Induction of apoptosis in human MOLM-13 cells assessed as live cells at 40 uM incubated for 12 hrs by annexin-V and propidium iodide staining based flow cytometry analysis (reference value: 91.49%). It is filed as functional.
Assay [21] concerns MOLM-13. The assay can be described thus: Induction of apoptosis in human MOLM-13 cells assessed as early apoptotic cells at 40 uM incubated for 12 hrs by annexin-V and propidium iodide staining based flow cytometry analysis (reference value: 5.40%). It is filed as functional.

Activity calls are given as the source filed them. No cut-off for these calls is given here.

T1 sequence (P11309 whole entry, looked up): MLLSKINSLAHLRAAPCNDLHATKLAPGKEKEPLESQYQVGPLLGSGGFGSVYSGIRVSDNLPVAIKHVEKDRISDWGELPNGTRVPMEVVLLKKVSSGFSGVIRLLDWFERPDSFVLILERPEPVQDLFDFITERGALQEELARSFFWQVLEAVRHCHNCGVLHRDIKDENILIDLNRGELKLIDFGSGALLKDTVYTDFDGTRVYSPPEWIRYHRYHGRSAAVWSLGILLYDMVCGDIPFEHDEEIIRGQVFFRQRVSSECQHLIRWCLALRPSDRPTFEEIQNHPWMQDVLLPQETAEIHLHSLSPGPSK
T1 sequence (Q9P1W9 whole entry, looked up): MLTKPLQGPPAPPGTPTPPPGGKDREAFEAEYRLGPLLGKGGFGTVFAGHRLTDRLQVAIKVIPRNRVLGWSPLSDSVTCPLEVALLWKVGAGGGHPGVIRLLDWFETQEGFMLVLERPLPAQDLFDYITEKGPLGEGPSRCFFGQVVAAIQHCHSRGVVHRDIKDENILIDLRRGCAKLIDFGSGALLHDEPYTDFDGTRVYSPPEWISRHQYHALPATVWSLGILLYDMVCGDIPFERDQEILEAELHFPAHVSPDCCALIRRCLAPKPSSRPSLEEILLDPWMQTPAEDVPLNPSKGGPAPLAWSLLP
MAP kinase-interacting serine/threonine-protein kinase 1, sequence (Q9BUB5 whole entry, looked up): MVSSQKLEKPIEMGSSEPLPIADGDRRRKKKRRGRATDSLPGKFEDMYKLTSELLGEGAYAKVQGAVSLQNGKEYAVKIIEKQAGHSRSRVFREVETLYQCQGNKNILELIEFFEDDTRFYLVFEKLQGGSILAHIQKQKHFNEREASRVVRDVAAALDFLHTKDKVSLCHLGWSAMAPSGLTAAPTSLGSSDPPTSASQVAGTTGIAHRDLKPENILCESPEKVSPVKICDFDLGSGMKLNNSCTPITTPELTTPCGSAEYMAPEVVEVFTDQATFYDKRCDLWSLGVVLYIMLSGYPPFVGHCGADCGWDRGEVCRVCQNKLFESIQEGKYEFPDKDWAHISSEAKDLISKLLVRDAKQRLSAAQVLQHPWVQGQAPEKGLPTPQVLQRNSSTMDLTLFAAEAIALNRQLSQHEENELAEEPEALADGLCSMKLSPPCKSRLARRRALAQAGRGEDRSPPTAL

As to `Nc1ncnc2[nH]nc(Nc3ccc(F)cc3)c12`, in assay [1], the inhibition was determined as 78%. The GI50 amounted to 9.88 µM in assay [2], 7.26 µM in [3] and 28.8 µM in [4]. Also, the inhibition result in [5] is “Active”. The inhibition result in assay [6] was “inactive”. Also, the Activity in assay [7] is given as 65.2%; in assay [11], 8.3%; in assay [12] it was 12.28%; in [13], 62.49%; in assay [14], 0.04%; in [15], 3.05%. For the same compound, the Activity in [16] is listed as 86.89%; in [17], 9.93%; in assay [18], 0.18%; in assay [19], 2.73%; in [20] it was 83.9%; in assay [21] it was 13.19%. The result in assay [8], in [9] and in [10] was Active.
